Data taken from US6974804B2, “Esters” (Unilever Home & Personal Care USA, division of Conopco, Inc., priority 2000, dated 2005).

Legend:
Assay type in all cases: physicochemical
[1] = Visual assessment score (clarity of gel in 1 cm cuvette); details: for Clarity Visual (assessment score): 9% REF2 and 1% of the specified ester in 60:40 hydrogenated polydecene:DC245, scale −12 to 8; for Clarity Visual (appearance): 60:40 hydrogenated polydecene:DC245 gelled with 9% REF2 and 1% of the specified cellobiose ester
In short: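 A gel in a 1 cm cuvette was laid on white paper printed with 21 graded sets of black figures, numbered −12 (largest, thickest) to 8 (smallest, thinnest). The score was the highest-numbered set read clearly through the gel, with higher meaning clearer.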

[2] = Light transmission at 580 nm (% T); details: 9% REF2 and 1% of the specified ester in 60:40 hydrogenated polydecene:DC245; 580 nm
Description: The translucency of a composition may be measured by placing a sample of standardised thickness in the light path of a spectrophotometer and measuring transmittance, as a percentage of light transmitted in the absence of the gel.
This test was carried out using a dual-beam spectrophotometer. The sample of composition was poured hot into a 4.5 ml cuvette made of poly(methyl-methacrylate) (PMMA) and allowed to cool to an ambient temperature of 20-25° C. Such a cuvette gives a 1 cm thickness of composition. […] A transmittence measured at any temperature in the range from 20-25° C. is usually adequately accurate, but measurement is made at 22° C. if more precision is required.

[3] = DSC of gels: fibre dissolution temperature (FDT) and solubility of structurant; details: for Solubility of structurant at 25° C.: from DSC of gel, relative to benchmark REF 2; for FDT: gel heated at 5 K/min in DSC, peak temperature of the highest peak
Description: In this Example the Fibre dissolution temperature (FDT) is measured in the DSC process described later herein, by observing when the fibres dissolve whilst the temperature of sample rises. FDT is taken to be the peak temperature of the highest peak.
In REF2 and REF3, the acyl substituents at the other seven cellobiose sites are nonanoyl.
Samples of gel (about 20 mg) were sealed in stainless steel capsules for DSC. An empty stainless steel capsule was used as the physical reference. The samples were subjected to the following temperature programme:
The sample was heated to 100° C. and held at 100° C. for 1 minute, in order to obtain an isotropic solution. The sample was then cooled at 5 K/min to −20° C. The sample was held at −20° C. for 1 minute. The sample is now a gel on the bottom of the sample capsule prepared in a reproducible manner. The gel was then heated at 5 K/min to 100° C. Data was also obtained with empty stainless steel pans as both physical sample and reference. This blank data was later subtracted from the sample data to remove any curvature in the base line.

[4] = Gelling of water-immiscible cosmetic liquids in 96 well glass micro-titre plate; set-up: key: gel; g4: gel after overnight (18 hrs) storage at 4° C.; g22: gel after overnight (18 hrs) storage at 22° C.; sg: soft gel; sg22: soft gel after overnight (18 hrs) storage at 22° C.; solution; *: the test at 4° C. was not carried out; details: for gelling of ISA: 150° C. 2.5 hours, cooled to ambient
In short: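 Esterified cellobiose at about 5% or 10% was mixed with the cosmetic liquid in lidded glass wells and heated at 150 °C for 2.5 h, then cooled to ambient. Gelling was judged by visual inspection and micro-spatula probing after cooling, after 18 h at 18 °C, and after a further 18 h at 4 °C.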

[5] = Stability testing of gels: crystal growth visible by eye on storage at 37° C.; details: for Observations: 9% of REF1 and 1% of additional structurant
Description: Gels were made up using 10% structurant in a 60:40 mixture of Hydrogenated Polyisobutene (Panalene L14E):DC245. The gels, in sealed glass bottles, were left to stand for 18 hrs at room temperature, after which they were transferred to an oven thermostatically controlled to 37° C. Samples were checked periodically for signs of crystal growth visible by eye. REF1 is cellobiose octanonanoate.
Gels were made up and tested in accordance with the procedure in Example 6, as such or modified by employing a weight ratio of 9% of REF1 and 1% of an additional structurant as specified in Table 13 below.
The test procedure of Example 9 was repeated, but using ACB structurant REF2 alone as the structurant or to which a CHME structurant was added.

[6] = 5% cellobiose ester in Finsolv TN
[7] = 5% cellobiose ester in Fluid AP
[8] = 5% cellobiose ester in Mineral oil
[9] = 5% cellobiose ester in Polydecene
[10] = 10% cellobiose ester in Finsolv TN
[11] = 10% cellobiose ester in Fluid AP
[12] = 10% cellobiose ester in Mineral oil
[13] = 10% cellobiose ester in Polydecene
[14] = REF2 to which the CHME structurant was added, after 12 days at 37° C.
[15] = 10% structurant in 60:40 Panalene L14E:DC245, after 17 days at 37° C.

Row | Structure (SMILES) | Clarity Visual (assessment score) [1] | Clarity Visual (appearance) [1] | Clarity % T [2] [%] | Solubility of structurant at 25° C. [3] | FDT [3] [°C] | gelling of DC556 ([4]; 5% cellobiose ester in DC556) | gelling of Finsolv TN [4, 6] | gelling of Fluid AP [4, 7] | gelling of IPM ([4]; 5% cellobiose ester in IPM) | gelling of ISA ([4]; 5% cellobiose ester in ISA) | gelling of Mineral oil [4, 8] | gelling of Polydecene [4, 9] | gelling of DC556 ([4]; 10% cellobiose ester in DC556) | gelling of Finsolv TN [4, 10] | gelling of Fluid AP [4, 11] | gelling of IPM ([4]; 10% cellobiose ester in IPM) | gelling of ISA ([4]; 10% cellobiose ester in ISA) | gelling of Mineral oil [4, 12] | gelling of Polydecene [4, 13] | Observation [5, 14] | other results
1 | CCCCCCCCC(=O)OCC1OC(OC2C(COC(=O)CCCCCCCC)OC(OC(=O)c3ccccc3)C(OC(=O)CCCCCCCC)C2OC(=O)CCCCCCCC)C(OC(=O)CCCCCCCC)C(OC(=O)CCCCCCCC)C1OC(=O)CCCCCCCC (mixture of isomers) [Ex 1.1] | translucent 5 | transparent/ | 55 | Less soluble. No | 64 | gel | g4 | gel | g4 | g22 | gel | gel | gel | gel | gel | gel | gel | gel | gel | No crystals after 12 days at 37 °C | Observations ([5]; after 11 days at 37° C.): Slight crystal growth on surface after 11
2 | CCCCCCCCC(=O)OCC1OC(OC2C(COC(=O)CCCCCCCC)OC(OC(=O)c3ccccc3)C(OC(=O)CCCCCCCC)C2OC(=O)CCCCCCCC)C(OC(=O)CCCCCCCC)C(OC(=O)CCCCCCCC)C1OC(=O)CCCCCCCC (mixture of isomers) [Ex 1.2] | translucent 4 | transparent/ | 38 | Less soluble. No | 67 | gel | sol | sg | sol | sg | sg | gel | gel | sol | gel | sol | gel | gel | gel |  | Observation [5, 15]: No crystals after 17 days.
3 | CCCCCCCCC(=O)OCC1OC(OC2C(COC(=O)CCCCCCCC)OC(OC(C)=O)C(OC(=O)CCCCCCCC)C2OC(=O)CCCCCCCC)C(OC(=O)CCCCCCCC)C(OC(=O)CCCCCCCC)C1OC(=O)CCCCCCCC (mixture of isomers) [Ex 1.7] | > 8 | transparent | 52 | Less soluble. No | 72 | gel |  | gel |  | sg | sg | gel | gel |  | gel |  | gel | gel | gel |  | Observations ([5]; after 13 days at 37° C.): Slight crystal growth on surface after 13; Observation [5, 15]: No crystals after 17 days.; Observation ([5]; REF2 to which the CHME structurant was added, after 13 days at 37° C.): Slight very fine crystal growth after 13
4 | CCCCCCCCC(=O)OCC1OC(OC2C(COC(=O)CCCCCCCC)OC(OC(=O)c3ccc4ccccc4c3)C(OC(=O)CCCCCCCC)C2OC(=O)CCCCCCCC)C(OC(=O)CCCCCCCC)C(OC(=O)CCCCCCCC)C1OC(=O)CCCCCCCC (mixture of isomers) [Ex 1.3] | 4 | transparent | 58 | Less soluble. No | 63 | gel | sol | gel | g4 | gel | g22 | gel | gel | g4 | gel | g22 | gel | g22 | gel | No crystals after 12 days at 37 °C | Observations ([5]; after 12 days at 37° C.): No crystals after 12 days at 37 °C
